# Measured values published in article PMC12948427 (The Journal of Clinical Investigation, 2025).
# “And” between values parts separate entries of the source, which are not always exact repeats. Equal values may be shown once. Read-outs that look alike come from different tables or passages of the source.
# Experiments:
# HCoV-229E [1] = assay: In vitro antiviral activity assay (IFA), HCoV-229E; assay type: cell-based; settings: for Inhibition rate (IFA): Fig 5F, MOI 0.1, 48 h
# SARS-CoV-2 Omicron BA.5 = assay type: in vivo, K18-hACE2 C57BL/6 mice; settings: mouse, in vivo
# SARS-CoV-2 wild-type = assay: microbe, parasite or virus in culture; assay type: cell-based; settings: Severe acute respiratory syndrome coronavirus 2, 24 h, read-out: EC50 (IFA)
# WIV1 [2] = assay: microbe, parasite or virus in culture; assay type: cell-based, bat coronavirus WIV1; settings: Bat coronavirus, 48 h, read-out: EC50 (IFA)
# HCoV-229E [3] = assay: Infection of ALI-cultured primary HBEs, HCoV-229E; assay type: cell-based
# Method: Primary HBEs at passage 3 or earlier were seeded at a density of 40,000 cells per well in Transwell inserts (Costar 6.5 mm Transwell, 0.4 μm Pore Polyester Membrane Inserts, catalog 3470) for expansion culture. The cells were cultured in expansion medium (PneumaCult-Ex Plus Medium, catalog 05040) until tight junctions were formed. Once tight junctions were established, the expansion medium in the upper chamber was discarded, and the medium in the lower chamber was replaced with ALI differentiation medium (PneumaCult-ALI Medium, catalog 05001). Cells were maintained under ALI conditions, with the medium being changed every 2 days. The differentiation process was carried out for 21 days, during which cell morphology and differentiation status were monitored. The fully differentiated cells were infected with HCoV-OC43, HCoV-229E, HCoV-NL63, or SARS-CoV-2 (MOI = 1), and fresh medium was changed 1 hour postinfection. Specific peptide was added into the medium every 24 hours. At 96 hours postinfection, cells in Transwell inserts were washed with 140 μL PBS per insert, and the wash fluid was collected to extract virus RNA followed by RT-qPCR. […] The fluorescence was measured using ImageJ (NIH).
# HCoV-229E [4] = system: HCoV-229E; set-up: species or system K18-hACE2 C57BL/6 mice; settings: mouse, in vivo
# HCoV-OC43 VLP = assay type: cell-based
# [5] = assay type: cell-based
# MHV [6] = system: MHV
# SARS-CoV-2 VLP = assay type: cell-based
# hHgs 1-390 protein = hHgs 1-390 protein (Homo sapiens, UniProt O14964); assay: biochemical
# WIV1 [7] = assay type: cell-based, bat coronavirus WIV1
# MHV [8] = assay: microbe, parasite or virus in culture; assay type: cell-based, mouse hepatitis virus (MHV); settings: Murine coronavirus, 24 h, read-out: EC50 (IFA)
# Chain of hHgs 1-390 protein (O14964 1-390): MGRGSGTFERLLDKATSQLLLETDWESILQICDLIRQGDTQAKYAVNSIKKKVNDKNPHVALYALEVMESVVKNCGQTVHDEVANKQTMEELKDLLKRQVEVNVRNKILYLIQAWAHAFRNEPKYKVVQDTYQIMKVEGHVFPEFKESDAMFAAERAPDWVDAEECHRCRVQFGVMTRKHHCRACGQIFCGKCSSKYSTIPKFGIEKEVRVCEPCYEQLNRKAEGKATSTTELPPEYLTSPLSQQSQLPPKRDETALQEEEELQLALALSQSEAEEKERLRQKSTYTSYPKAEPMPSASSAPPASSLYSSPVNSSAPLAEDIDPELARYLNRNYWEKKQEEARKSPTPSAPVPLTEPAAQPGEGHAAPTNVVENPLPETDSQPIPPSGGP
smiles,measurement,setting,value
"CCCC(=O)OC[C@@H](OC(=O)CCC)[C@@H](OC(=O)CCC)[C@H](Cn1c2nc(=O)[nH]c(=O)c-2nc2cc(C)c(C)cc21)OC(=O)CCC [RTB, riboflavin tetrabutyrate]",Inhibition rate (IFA),HCoV-229E [1]; conc 10 (unit not given),1.96% and 3.23% and 5.67%
same,Inhibition rate (IFA),HCoV-229E [1]; conc 30 (unit not given),3.76% and 4.49% and 3.62%
same,Inhibition rate (IFA),HCoV-229E [1]; conc 100 (unit not given),5.42% and 6.32% and 1.81%
same,Inhibition rate (IFA),HCoV-229E [1]; conc 200 (unit not given),10.91% and 9.21% and 8.05%
same,Inhibition rate (IFA),HCoV-229E [1]; conc 1000 (unit not given),20.9% and 20.96% and 21.52%
same,Inhibition rate (IFA),HCoV-229E [1]; conc 5000 (unit not given),53.61% and 55.59% and 56.09%
same,Inhibition rate (IFA),HCoV-229E [1]; conc 10000 (unit not given),87.09% and 86.7% and 87.17%
same,Inhibition rate (IFA),HCoV-229E [1]; conc 20000 (unit not given),98.7% and 98.72% and 98.89%
same,EC50,"HCoV-229E [1]; Human coronavirus 229E, 48 h, read-out: EC50 (IFA)",6.11 µM
same,Survival curves: per-mouse event code,SARS-CoV-2 Omicron BA.5,0
same,body weight loss,SARS-CoV-2 Omicron BA.5,markedly reduced body weight loss
same,lung inflammation,SARS-CoV-2 Omicron BA.5,alleviated lung inflammation
same,pulmonary viral titers,SARS-CoV-2 Omicron BA.5,substantially lowered pulmonary viral titers
same,survival,SARS-CoV-2 Omicron BA.5,significantly improved survival
same,EC50,SARS-CoV-2 wild-type,14.8 µM
same,"cell viability, Figure S9C",17Cl-1 cells; concentration 100,97.7719 and 100.641 and 97.299
same,"cell viability, Figure S9C",17Cl-1 cells; concentration 200,98.9701 and 100.61 and 98.3395
same,"cell viability, Figure S9C",17Cl-1 cells; concentration 500,100.294 and 99.5691 and 98.0557
same,"cell viability, Figure S9C",17Cl-1 cells; concentration 1000,100.137 and 99.6952 and 100.704
same,"cell viability, Figure S9C",17Cl-1 cells; concentration 2000,101.366 and 100.294 and 100.61
same,"cell viability, Figure S9C",17Cl-1 cells; concentration 5000,101.555 and 101.524 and 100.673
same,"cell viability, Figure S9C",17Cl-1 cells; concentration 10000,99.979 and 101.24 and 100.294
same,"cell viability, Figure S9C",17Cl-1 cells; concentration 20000,99.506 and 99.1907 and 98.4025
same,EC50,WIV1 [2],3.53 µM
same,extracellular viral gRNA levels (RT-qPCR),"HCoV-229E [3]; Fig 5H, HCoV-229E MOI = 1, ALI-cultured HBEs, 96 h, RTB dose 5 (unit not given)",7 and 6 and 8
same,inhibition of infection in ALI cultures of HBEs,HCoV-229E [3]; HCoV-229E,"significant, dose-dependent inhibition"
same,"cell viability, Figure S9M",Vero E6 cells; concentration 100,90.9619 and 91.4921 and 91.5678
same,"cell viability, Figure S9M",Vero E6 cells; concentration 200,83.3123 and 82.1005 and 89.9015
same,"cell viability, Figure S9M",Vero E6 cells; concentration 500,91.4921 and 86.1146 and 87.6294
same,"cell viability, Figure S9M",Vero E6 cells; concentration 1000,92.9311 and 88.614 and 83.4638
same,"cell viability, Figure S9M",Vero E6 cells; concentration 2000,97.5511 and 94.5216 and 90.4317
same,"cell viability, Figure S9M",Vero E6 cells; concentration 5000,93.6885 and 92.1737 and 93.0068
same,"cell viability, Figure S9M",Vero E6 cells; concentration 10000,96.718 and 96.0363 and 91.6435
same,"cell viability, Figure S9M",Vero E6 cells; concentration 20000,91.6435 and 99.3688 and 98.3085
same,pulmonary viral titers,HCoV-229E [4],lowered pulmonary viral titers
same,viral gRNA,HCoV-229E [4],significantly reduced viral gRNA
same,virus-induced lung injury,HCoV-229E [4],markedly attenuated virus-induced lung injury
same,VLPs' release,HCoV-OC43 VLP,concentration-dependent inhibition
same,"Inhibition, time-of-drug-addition (Figures S12A, S12B)","[5]; 1h, concentration 10000 (unit not given)",18.697 and 20.3699 and 24.961
same,"Inhibition, time-of-drug-addition (Figures S12A, S12B)","[5]; 1h, concentration 25000 (unit not given)",81.3431 and 85.284 and 85.9984
same,"Inhibition, time-of-drug-addition (Figures S12A, S12B)","[5]; 3h, concentration 3000 (unit not given)",10.0367 and 8.463 and 5.695
same,"Inhibition, time-of-drug-addition (Figures S12A, S12B)","[5]; 3h, concentration 10000 (unit not given)",25.0374 and 23.4524 and 23.7085
same,"Inhibition, time-of-drug-addition (Figures S12A, S12B)","[5]; 3h, concentration 25000 (unit not given)",87.678 and 84.0771 and 84.6309
same,"Inhibition, time-of-drug-addition (Figures S12A, S12B)","[5]; 5h, concentration 10000 (unit not given)",24.2683 and 28.1902 and 26.5679
same,"Inhibition, time-of-drug-addition (Figures S12A, S12B)","[5]; 5h, concentration 25000 (unit not given)",80.9022 and 85.7938 and 85.9604
same,"Inhibition, time-of-drug-addition (Figures S12A, S12B)","[5]; 7h, concentration 3000 (unit not given)",11.352 and 13.6306 and 7.232
same,"Inhibition, time-of-drug-addition (Figures S12A, S12B)","[5]; 7h, concentration 10000 (unit not given)",27.8545 and 21.5848 and 25.4245
same,"Inhibition, time-of-drug-addition (Figures S12A, S12B)","[5]; 7h, concentration 25000 (unit not given)",81.9707 and 81.2844 and 80.2961
same,"viability of infected cells (rescue of cytopathic effect), Figures S9G-L",MHV [6]; concentration 10,46.6398 and 47.8192 and 45.9379
same,"viability of infected cells (rescue of cytopathic effect), Figures S9G-L",MHV [6]; concentration 30,48.4931 and 47.9876 and 45.7132
same,"viability of infected cells (rescue of cytopathic effect), Figures S9G-L",MHV [6]; concentration 100,49.4197 and 48.1842 and 47.2295
same,"viability of infected cells (rescue of cytopathic effect), Figures S9G-L",MHV [6]; concentration 300,52.6488 and 47.5665 and 45.7132
same,"viability of infected cells (rescue of cytopathic effect), Figures S9G-L",MHV [6]; concentration 1000,53.6878 and 50.8517 and 50.0094
same,"viability of infected cells (rescue of cytopathic effect), Figures S9G-L",MHV [6]; concentration 3000,66.4358 and 61.915 and 62.9259
same,"viability of infected cells (rescue of cytopathic effect), Figures S9G-L",MHV [6]; concentration 10000,81.009 and 81.0651 and 81.6829
same,"viability of infected cells (rescue of cytopathic effect), Figures S9G-L",MHV [6]; concentration 25000,85.0805 and 84.4908 and 83.1711
same,"cell viability, Figure S9N",Calu-3 cells; concentration 100,105.852 and 107.383 and 107.23
same,"cell viability, Figure S9N",Calu-3 cells; concentration 200,101.565 and 101.412 and 100.391
same,"cell viability, Figure S9N",Calu-3 cells; concentration 500,101.157 and 97.3801 and 98.3498
same,"cell viability, Figure S9N",Calu-3 cells; concentration 1000,97.9415 and 98.4518 and 97.0228
same,"cell viability, Figure S9N",Calu-3 cells; concentration 2000,101.616 and 101.361 and 95.2365
same,"cell viability, Figure S9N",Calu-3 cells; concentration 5000,102.331 and 100.647 and 99.932
same,"cell viability, Figure S9N",Calu-3 cells; concentration 10000,101.31 and 101.055 and 99.5747
same,"cell viability, Figure S9N",Calu-3 cells; concentration 20000,107.281 and 106.312 and 107.792
same,VLPs' release,SARS-CoV-2 VLP,concentration-dependent inhibition
same,IC50,hHgs 1-390 protein,580 nM
same,inhibition of infection in ALI cultures of HBEs,WIV1 [7],"significant, dose-dependent inhibition"
same,EC50,MHV [8],11.2 µM
